Where “and” joins values, the source holds several entries; their conditions need not be identical. Equal entries are not always repeated.
Assays:
coronary patients [1] = assay: Phase II SPECT imaging study: stress scores, 17-segment model; type: in vivo, human; design: key: sum of abnormal segment scores, each 0 = normal to 4 = no uptake; settings: adenosine alone 140 μg/kg/min; Series I, individual patients 1-10; listed as Adenoscan
Procedure: The study, which is ongoing, is a mono-center, single-blind, 2-arm, cross-over trial.
Only those patients in whom an ischemic zone was detected were declared eligible for the second test, and were enrolled in the study if other inclusion criteria were satisfied.
SPECT images were acquired as per the standard approach performed the preceding week.
Randomization of SPECT images, and their analysis by two blinded readers, took place every 10 patients. Anonymous and randomized images were assessed using the standard 17-segment model and the semi-quantitative visual score method on a 5-point scale (from 0 to 4).
The “stress score” is the image of ischemia in one or more of the 17 cardiac segments, as scored from 0 to 4 by the blinded reader using the following scale: normal perfusion=0, mild reduction in counts=1, moderate reduction in counts=2, severe reduction=3, absence of uptake=4). Normally, a zone of ischemia is certain when a score ≧4 is noted. A stress score sums the scores of all abnormal segments.
“Stress score A” is the image score difference between stress conditions between adenosine alone and rest conditions. […] “Delta score” is the difference between “Stress score A” and “Stress score B.” It must not be >2 […]

coronary patients [2] = assay: Safety of the procedure in the Phase II SPECT study: adverse events, visual scale, ST changes on EKG; type: in vivo, human
Procedure: Given the similar adverse effect profile, the 40 μg/kg dipyridamole dose is currently preferred, since it tends to show greater efficacy.
Table 13 gives adverse event severity cumulated scores, evaluated on a visual scale (going from 0 to 10), for the first 27 patients.
At this point in time, no difference in the occurrence of A2 receptor-related side effects, or severity of symptoms, has become clearly apparent as between the combination stressor and Adenoscan. In contrast, the reduction in the occurrence (−43%) and severity (−69%) of chest pain (an A1 receptor-related adverse effect) has already become manifest in the first 27 patients. […] The difference in ST-variation for each patient alone is not significant, but the total difference has achieved significance, with a clear trend in favor of the combination. In the table below (Table 14) ST-changes/baseline are expressed in millimeters.

[3] = tested on: patients suffering from ischemic heart disease; assay: Transthoracic doppler echocardiography (TTDE): blood flow velocity in the left anterior descending coronary artery (LAD); type: in vivo, human; settings: for Mean velocity ADE Max / Peak velocity ADE Max: adenosine alone 140 μg/kg/min IV, under stress conditions; for Mean velocity ADE Min / Peak velocity ADE Min: at rest (basal conditions) before adenosine 140 μg/kg/min; for MV-DIP Min / PV-DIP Min: at rest, dipyridamole alone arm
Procedure: In the combined administration, each of the two agents was administered at a dosage lower than its clinically preferred dosage when used as a single agent for myocardial perfusion imaging. Effects were measured using noninvasive transthoracic doppler echocardiography (TTDE).
The protocol was designed as follows.
Forty (40) consecutive patients suffering from ischemic heart disease were enrolled. Each patient served as their own control.
[…] These total doses are between about 4-6% of the lowest single-agent total dose of dipyridamole (i.e., 0.56 mg/kg, infused over a total of 4 minutes).
This dose is half the standard single-agent dosage rate of 140 μg/kg/min.

[4] = tested on: patients suffering from ischemic heart disease; assay: Patient tolerance in Example 1: adverse events, VAS severity, EKG, vital signs; settings: for Mean global visual analogue scale (VAS) score for the three main adverse events: total score of 30, ADE 140 μg/kg/min, SC adenosine 70 μg/kg/min
Excerpt: (§1) Primary efficacy end-points were peak and mean diastolic flow velocities (measured as reflecting coronary blood flow values). The secondary end-point was patient tolerance to the procedure.
(§2) VAS scores provide a measure of patient self-assessment of pain intensity/discomfort.

[5] = tested on: patients suffering from ischemic heart disease; settings: human, in vivo, iv
Excerpt: as §1, §2

[6] = cited from earlier work
[7] = Adenoscan alone 140 μg/kg/min, n=27
[8] = visual scale 0 to 10, cumulated over first 27 patients
[9] = mean of 5 patients (DIP4 group)
[10] = mean of 5 patients (DIP6 group)
[11] = mean of 30 patients (DIP5 group)
[12] = at rest before adenosine infusion, individual patients (second control experiment)
[13] = at rest before first adenosine infusion, individual patients, listed as ADE1
[14] = at rest before first adenosine infusion, mean of 5 patients
[15] = at rest before second adenosine infusion, individual patients, listed as ADE2
[16] = at rest before second adenosine infusion, mean of 5 patients
[17] = first adenosine infusion 140 μg/kg/min, stress, mean of 5 patients
[18] = first vs second adenosine infusion 140 μg/kg/min, 5 patients
[19] = second adenosine infusion 140 μg/kg/min after 5 minute stabilization, stress, individual patients, listed as ADE2
[20] = second adenosine infusion 140 μg/kg/min, stress, mean of 5 patients
[21] = three minute adenosine infusion 140 μg/kg/min, stress, individual patients (second control experiment)
[22] = adenosine alone 140 μg/kg/min, 40 patients
[23] = dipyridamole alone, bolus 28 μg/kg, individual patient
[24] = dipyridamole alone, bolus 35 μg/kg, individual patients
[25] = dipyridamole alone, bolus 40 μg/kg, individual patients

## Nc1ncnc2c1ncn2[C@@H]1O[C@H](CO)[C@@H](O)[C@H]1O [ADE, adenosine]
Coronary patients [1]
  Stress score A (Adenoscan): 5 (5×) and 4 (2×) and 14 and 13 and 7
Coronary patients [2]; [7]
  Chest pain: # patients reporting event, ADE: 14
  Dyspnea: # patients reporting event, ADE: 11
  Flushing: # patients reporting event, ADE: 14
Coronary patients [2]; EKG, individual patients with ST variations (6 of 27)
  ST-changes/baseline, Adenosine 140 μg/kg/mn: 0.5 millimeters and 1 millimeters (3×) and 0.8 millimeters and 1.2 millimeters
Coronary patients [2]; EKG, total of 6 patients
  ST-changes/baseline, Adenosine 140 μg/kg/mn, Total: 5.5 millimeters
Coronary patients [2]; [8]
  Chest pain: adverse event severity cumulated score: 60
  Dyspnea: adverse event severity cumulated score: 40
  Flushing: adverse event severity cumulated score: 43.5
[3]; 140 μg/kg/min twice, 5 patients, P>0.05
  Differences in velocity measurements between first and second adenosine infusions: No statistically significant differences
[3]; (DIP5 group)
  Mean velocity ADE Max: 61.4 cm/s
[3]; cumulated, all 40 patients
  Mean velocity ADE Max: 63.6 cm/s
  Peak velocity ADE Max: 85.3 cm/sec
  Mean velocity ADE Min: 23.7 cm/s
  Peak velocity ADE Min: 31.2 cm/sec
[3]; [9]
  Mean velocity ADE Max: 60.4 cm/s
  Peak velocity ADE Max: 80 cm/sec
  Mean velocity ADE Min: 22.2 cm/s
  Peak velocity ADE Min: 28 cm/sec
[3]; [10]
  Mean velocity ADE Max: 80.2 cm/s
  Peak velocity ADE Max: 107 cm/sec
  Mean velocity ADE Min: 28.2 cm/s
  Peak velocity ADE Min: 37.6 cm/sec
[3]; [11]
  Peak velocity ADE Max: 82.6 cm/sec
  Mean velocity ADE Min: 23.1 cm/s
  Peak velocity ADE Min: 30.6 cm/sec
[3]; [12]
  MV-ADE Min: 21 cm/sec and 23 cm/sec (2×) and 25 cm/sec and 20 cm/sec
  PV-ADE Min: 25 cm/sec and 33 cm/sec (2×) and 27 cm/sec and 32 cm/sec
[3]; [13]
  MV-ADE1 Min: 25 cm/s and 17 cm/s and 22 cm/s and 23 cm/s and 20 cm/s
  PV-ADE1 Min: 34 cm/sec and 23 cm/sec and 30 cm/sec (2×) and 28 cm/sec
[3]; [14]
  MV-ADE1 Min, Mean: 21.4 cm/s
  PV-ADE1 Min, Mean: 29 cm/sec
[3]; [15]
  MV-ADE2 Min: 23 cm/s and 16 cm/s and 22 cm/s and 21 cm/s and 20 cm/s
  PV-ADE2 Min: 31 cm/sec and 22 cm/sec and 29 cm/sec and 26 cm/sec and 25 cm/sec
[3]; [16]
  MV-ADE2 Min, Mean: 20.4 cm/s
  PV-ADE2 Min, Mean: 26.6 cm/sec
[3]; first adenosine infusion 140 μg/kg/min, stress, individual patients (first control experiment), listed as ADE1
  PV-ADE1 Max: 68 cm/sec and 65 cm/sec and 102 cm/sec and 73 cm/sec and 70 cm/sec
[3]; first adenosine infusion 140 μg/kg/min, stress, individual patients, listed as ADE1
  MV-ADE1 Max: 49 cm/s and 48 cm/s and 75 cm/s and 53 cm/s and 50 cm/s
[3]; [17]
  MV-ADE1 Max, Mean: 55 cm/s
  PV-ADE1 Max, Mean: 75.6 cm/sec
[3]; [18]
  Max velocity differential MV (ADE1 − ADE2): (ADE2) = 2.4 cm/sec
  Max velocity differential PV (ADE1 − ADE2): (ADE2) = 4.8 cm/sec
[3]; [19]
  MV-ADE2 Max: 45 cm/sec and 48 cm/sec (2×) and 75 cm/sec and 47 cm/sec
  PV-ADE2 Max: 60 cm/sec and 66 cm/sec and 103 cm/sec and 63 cm/sec and 62 cm/sec
[3]; [20]
  MV-ADE2 Max, Mean: 52.6 cm/s
  PV-ADE2 Max, Mean: 70.8 cm/sec
[3]; [21]
  MV-ADE Max: 71 cm/s and 67 cm/s and 86 cm/s and 64 cm/s and 61 cm/s
  PV-ADE Max: 88 cm/sec and 92 cm/sec and 112 cm/sec and 84 cm/sec (2×)
[4]; Group DIP4 (dipyridamole 35 μg/kg in SC), n=5
  Mean global visual analogue scale (VAS) score for the three main adverse events: 5.4
[4]; Group DIP5 (dipyridamole 28 μg/kg in SC), n=30
  Mean global visual analogue scale (VAS) score for the three main adverse events: 5.95
[4]; Group DIP6 (dipyridamole 23 μg/kg in SC), n=5
  Mean global visual analogue scale (VAS) score for the three main adverse events: 8.2
[4]; adenosine 140 μg/kg/min, individual patients (second control experiment)
  Symptoms under ADE: None (2×) and Dyspnea and Flushing (2×)
[4]; adenosine 140 μg/kg/min, score out of 10, individual patients
  Symptoms under ADE: score: 5/10 and 8/10 and 6/10
[4]; [22]
  Chest pain: # patients reporting events, ADE: 9
  Chest pain: frequency, ADE: 22.5%
  Dyspnea: # patients reporting events, ADE: 20
  Dyspnea: frequency, ADE: 50%
  Flushing: # patients reporting events, ADE: 21
  Flushing: frequency, ADE: 52.5%

## OCCN(CCO)c1nc(N2CCCCC2)c2nc(N(CCO)CCO)nc(N3CCCCC3)c2n1 [DIP, dipyridamole]
[5]
  Symptoms during a follow-up of 10 minutes: No symptoms
[3]; 28 μg/kg, individual patient
  MV-DIP Min: 19 cm/s
  PV-DIP Min: 23 cm/sec
[3]; 35 μg/kg, individual patients
  MV-DIP Min: 18 cm/s and 22 cm/s
  PV-DIP Min: 21 cm/sec and 30 cm/sec
[3]; 40 μg/kg, individual patients
  MV-DIP Min: 23 cm/s and 24 cm/s
  PV-DIP Min: 33 cm/sec and 34 cm/sec
[3]; dipyridamole alone, IV bolus 28 to 40 μg/kg, 5 patients
  Effect on peak and mean diastolic velocities: did not modify
[3]; [23]
  MV-DIP Max: 21 cm/s
  PV-DIP Max: 26 cm/sec
[3]; [24]
  MV-DIP Max: 20 cm/s and 28 cm/s
  PV-DIP Max: 23 cm/sec and 40 cm/sec
[3]; [25]
  MV-DIP Max: 25 cm/s and 29 cm/s
  PV-DIP Max: 35 cm/sec and 40 cm/sec
[6]; pH>4, long term
  Stability in solvents: unstable in the long term
[6]; saline
  Solubility in saline: poorly soluble
